Data taken from a compilation of properties of binary mixtures (doi:10.1007/s10953-015-0325-1).

Test: xn = mol fraction of the nth substance listed
Details: 100 kPa

CCCN + CCCCCCCC[n+]1ccn(C)c1.F[P-](F)(F)(F)(F)F
speed of sound [m/s]
Details | x1 = 0.0976 | x1 = 0.218 | x1 = 0.263 | x1 = 0.3677 | x1 = 0.4676 | x1 = 0.5629 | x1 = 0.6971 | x1 = 0.7972 | x1 = 0.9087 | x1 = 1
293.15 K | 1408 | 1392.4 | 1388.7 | 1375.5 | 1363.8 | – | 1327.2 | 1296.3 | 1260.5 | –
298.15 K | 1393.2 | 1378.7 | 1375 | – | – | 1335.9 | – | – | 1244 | 1213.9
303.15 K | 1381.2 | 1362.6 | 1358.9 | 1344.5 | 1332.1 | 1316.2 | – | 1260.7 | – | –
308.15 K | 1368.6 | 1348.2 | – | 1330.1 | 1314.1 | 1299.6 | 1270.5 | 1239.1 | – | 1164.9
313.15 K | – | 1333.4 | – | 1312.1 | 1295.8 | 1278.5 | – | 1218.2 | 1177.2 | 1140.4

CCCN + CCCCCC[n+]1ccn(C)c1.F[P-](F)(F)(F)(F)F
x1 = 1
Details | speed of sound [m/s]
293.15 K | 1238.3
303.15 K | 1189.5
308.15 K | 1164.9
313.15 K | 1140.4

CCCN + CCCC[n+]1ccn(C)c1.F[P-](F)(F)(F)(F)F
speed of sound [m/s]
Details | x1 = 0.0684 | x1 = 0.155 | x1 = 0.2613 | x1 = 0.3519 | x1 = 0.4366 | x1 = 0.5956 | x1 = 0.69 | x1 = 0.79 | x1 = 0.9026 | x1 = 1
293.15 K | 1444.7 | 1429.8 | 1407.5 | – | 1371.3 | – | 1315 | 1288.8 | – | –
298.15 K | – | 1419.3 | 1395 | – | 1355.3 | 1320.6 | – | 1269.5 | 1235.5 | –
303.15 K | – | – | 1380.5 | – | 1338 | – | 1277.6 | 1247.8 | – | 1189.5
308.15 K | 1412.4 | – | 1365.2 | 1341 | 1319.8 | 1280.4 | 1257 | 1225.2 | 1189.2 | 1164.9
313.15 K | 1399.6 | 1380.1 | 1348.8 | 1324.5 | 1300 | – | – | 1202.5 | 1165.5 | 1140.4

CCCCCCCC[n+]1ccn(C)c1.F[P-](F)(F)(F)(F)F + CCCN
x2 = 0
Details | speed of sound [m/s]
293.15 K | 1421.2
298.15 K | 1406.4
308.15 K | 1378.8
313.15 K | 1365.7

CCCCCC[n+]1ccn(C)c1.F[P-](F)(F)(F)(F)F + CCCN
speed of sound [m/s]
Details | x2 = 0 | x2 = 0.0873 | x2 = 0.1718 | x2 = 0.2686 | x2 = 0.3426 | x2 = 0.4606 | x2 = 0.5627 | x2 = 0.6597 | x2 = 0.7913 | x2 = 0.902
293.15 K | 1436.9 | – | 1411 | 1396.5 | 1385.5 | 1365.7 | 1347.1 | 1324 | 1289.8 | 1258.5
298.15 K | 1423.5 | 1408 | – | 1382.6 | 1370.4 | 1350.8 | 1330.3 | 1309 | 1271.5 | 1238.6
303.15 K | 1410.6 | 1396.1 | – | 1366.5 | 1354.3 | – | – | 1291.1 | 1253.1 | 1216.1
308.15 K | 1398.2 | – | 1370.6 | 1351.7 | 1337.3 | 1315.3 | – | – | 1230.8 | 1193
313.15 K | – | 1372.5 | 1357.5 | 1336.2 | 1320.4 | 1297.1 | – | 1250 | – | 1170

CCCC[n+]1ccn(C)c1.F[P-](F)(F)(F)(F)F + CCCN
x2 = 0
Details | speed of sound [m/s]
293.15 K | 1454.7
298.15 K | 1442.4
303.15 K | 1430.3
308.15 K | 1418.5
313.15 K | 1406.8
